Data: paper PMC3626541, “A first in human, safety, pharmacokinetics, and clinical activity phase I study of once weekly administration of the Hsp90 inhibitor ganetespib (STA-9090) in patients with solid malignancies” (BMC Cancer, 2013)

Test system: patients with advanced solid tumors
Assay: Safety: adverse events (NCI CTCAE v3.0), ECG
Type: in vivo, human
Method: Patients’ demographics and medical history were recorded at baseline. Physical examination and PS were assessed at baseline and on Day 1 of each cycle. Adverse events (AEs), vital signs, hematology and chemistry values, and creatinine clearance were assessed at baseline and weekly during treatment. Toxicity was graded using National Cancer Institute Common Terminology Criteria for Adverse Events (NCI CTCAE), version 3.0. An electrocardiogram (ECG) was performed at baseline, before and after treatment on Days 1 and 15 of Cycles 1 and 2, and on Day 15 of even-numbered cycles thereafter. CT scans were done at baseline and every 8 weeks thereafter. Tumor response was assessed using Response Evaluation Criteria in Solid Tumors (RECIST, v1.0), with confirmation of responses performed at least 4 weeks later.

## CC(C)c1cc(-c2n[nH]c(=O)n2-c2ccc3c(ccn3C)c2)c(O)cc1O [Ganetespib, 5-[2,4-dihydroxy-5-(1 methyl-ethyl)phenyl]-2,4 dihydro-4-(1-methyl-1H indol-5 yl)-3H-1,2,4 triazole-3-one]
259 mg/m^2, n = 6
  ALT elevation, CTCAE Grade 3 and 4 AE, Number (%) of patients: 0 n (%)
  AST elevated, AE of any grade, Number (%) of patients: 0 n (%)
  Abdominal distension, AE of any grade, Number (%) of patients: 0 n (%)
  Abdominal pain, AE of any grade, Number (%) of patients: 1 (16.7) n (%)
  Abdominal pain, serious adverse events, Number (%) of patients: 1 (16.7) n (%)
  Anemia, AE of any grade, Number (%) of patients: 0 n (%)
  Any event, AE of any grade, Number (%) of patients: 6 (100) n (%)
  Any event, CTCAE Grade 3 and 4 AE, Number (%) of patients: 5 (83.3) n (%)
  Any event, serious adverse events, Number (%) of patients: 3 (50) n (%)
  Arthralgia, CTCAE Grade 3 and 4 AE, Number (%) of patients: 1 (16.7) n (%)
  Asthenia, AE of any grade, Number (%) of patients: 2 (33.3) n (%)
  Asthenia, CTCAE Grade 3 and 4 AE, Number (%) of patients: 2 (33.3) n (%)
  Asthenia, serious adverse events, Number (%) of patients: 1 (16.7) n (%)
  Back pain, AE of any grade, Number (%) of patients: 2 (33.3) n (%)
  Constipation, AE of any grade, Number (%) of patients: 1 (16.7) n (%)
  Decreased appetite, AE of any grade, Number (%) of patients: 1 (16.7) n (%)
  Dehydration, AE of any grade, Number (%) of patients: 3 (50) n (%)
  Dehydration, CTCAE Grade 3 and 4 AE, Number (%) of patients: 1 (16.7) n (%)
  Dehydration, serious adverse events, Number (%) of patients: 1 (16.7) n (%)
  Diarrhea, AE of any grade, Number (%) of patients: 6 (100) n (%)
  Diarrhea, CTCAE Grade 3 and 4 AE, Number (%) of patients: 1 (16.7) n (%)
  Dizziness, AE of any grade, Number (%) of patients: 2 (33.3) n (%)
  Dry mouth, AE of any grade, Number (%) of patients: 1 (16.7) n (%)
  Dyspnea, AE of any grade, Number (%) of patients: 1 (16.7) n (%)
  Extremity pain, AE of any grade, Number (%) of patients: 1 (16.7) n (%)
  Fatigue, AE of any grade, Number (%) of patients: 5 (83.3) n (%)
  Fatigue, CTCAE Grade 3 and 4 AE, Number (%) of patients: 1 (16.7) n (%)
  Headache, AE of any grade, Number (%) of patients: 1 (16.7) n (%)
  Hyperbilirubinemia, CTCAE Grade 3 and 4 AE, Number (%) of patients: 0 n (%)
  Hypokalemia, AE of any grade, Number (%) of patients: 1 (16.7) n (%)
  Hypokalemia, CTCAE Grade 3 and 4 AE, Number (%) of patients: 0 n (%)
  Hyponatremia, CTCAE Grade 3 and 4 AE, Number (%) of patients: 0 n (%)
  Hypophosphatemia, AE of any grade, Number (%) of patients: 0 n (%)
  Hypophosphatemia, CTCAE Grade 3 and 4 AE, Number (%) of patients: 0 n (%)
  Insomnia, AE of any grade, Number (%) of patients: 2 (33.3) n (%)
  Musculoskeletal chest pain, AE of any grade, Number (%) of patients: 0 n (%)
  Nausea, AE of any grade, Number (%) of patients: 4 (66.7) n (%)
  Peripheral edema, AE of any grade, Number (%) of patients: 1 (16.7) n (%)
  Pneumonia, serious adverse events, Number (%) of patients: 1 (16.7) n (%)
  Rash, AE of any grade, Number (%) of patients: 1 (16.7) n (%)
  Serum amylase elevated, CTCAE Grade 3 and 4 AE, Number (%) of patients: 0 n (%)
  Spinal cord compression, CTCAE Grade 3 and 4 AE, Number (%) of patients: 0 n (%)
  Urinary tract infection, AE of any grade, Number (%) of patients: 3 (50) n (%)
  Vomiting, AE of any grade, Number (%) of patients: 3 (50) n (%)
  Weight decreased, AE of any grade, Number (%) of patients: 1 (16.7) n (%)
259 mg/m^2, n = 6, first of two ALT elevated lines
  ALT elevated, AE of any grade, Number (%) of patients: 0 n (%)
259 mg/m^2, n = 6, second of two ALT elevated lines
  ALT elevated, AE of any grade, Number (%) of patients: 0 n (%)
259 mg/m^2, history of coronary artery disease, possibly related to study drug
  Patients with Grade 1 atrio-ventricular block: One patient
259 mg/m^2 dose level
  Incidence of diarrhea: 100%
  Incidence of fatigue: 83.3%
7-114 mg/m^2, n = 25
  ALT elevation, CTCAE Grade 3 and 4 AE, Number (%) of patients: 2 (8) n (%)
  AST elevated, AE of any grade, Number (%) of patients: 5 (20) n (%)
  Abdominal distension, AE of any grade, Number (%) of patients: 3 (12) n (%)
  Abdominal pain, AE of any grade, Number (%) of patients: 9 (36) n (%)
  Abdominal pain, serious adverse events, Number (%) of patients: 0 n (%)
  Anemia, AE of any grade, Number (%) of patients: 11 (44) n (%)
